From patent US9034866B2 (Genentech, Inc., priority 2012, dated 2015)
Where two headings read alike, the source gives them in different places.

Tests used:
[1] = tested on: REL-A (p65) nuclear translocation in HeLa cells; test: REL-A nuclear translocation assay (classical NF-kB signaling), high content imaging; type: cell-based; conditions: Homo sapiens, compounds 4.5 hours, then 10 ng/mL TNF-α for 30 minutes, read-out: REL-A HeLa Transloc Assay (IC50)
Procedure: (§1) (2) A second set of cell assay are used to define the selectivity of NIK inhibitors toward inhibition of classical vs. non-classical NF-kB signaling and rely on quantification of the nuclear translocation of p52 (NF-kB2) and REL-A (p65) using high content cellular imaging. For the p52 (non-classical NF-kB signaling) nuclear translocation assay, HeLa cells are treated with different concentrations of compounds (0.2% DMSO final) in medium containing 10% fetal bovine serum and then stimulated with 100 ng/mL, of an anti-lymphotoxin beta receptor antibody (R&D Systems) for 5 hours. In the REL-A nuclear translocation assay, HeLa cells are incubated with compounds (0.2% DMSO final) for 4.5 hours in medium containing 10% fetal bovine serum before stimulating them with 10 ng/mL tumor necrosis factor (TNF)-α (R&D Systems) for 30 minutes. Cells are fixed with 4% paraformaldehyde, permeabilized by adding 0.1% Triton X-100 in phosphate buffered saline, and then are incubated with either 2 ug/mL anti-p52 antibody (Millipore) or 400 ng/mL anti-REL-A (p65) antibody (Santa Cruz Biotechnology). Finally, the cells are incubated with an Alexa488-labeled secondary antibody (Invitrogen) and DRAQ5 DNA stain (Biostatus). Imaging is carried out using an Opera reader (Perkin Elmer) and data are analyzed with the aid of Acapella software (Perkin Elmer). The p52 or REL-A translocation into the nucleus is quantified by the ratio of the nuclear to cytoplasmic signal intensity. […] The compounds in listed in Table 1 have the corresponding inhibitory value (IC50 in micromolar) for NIK p52 Translocation Assay as set forth in Table 2.
The compounds in listed in Table 1 has the corresponding inhibitory value (IC50 in micromolar) for NIK RelA Translocation Assay as set forth in Table 2.

[2] = tested on: p52 (NF-kB2) nuclear translocation in HeLa cells; test: p52 nuclear translocation assay (non-classical NF-kB signaling), high content imaging; type: cell-based; conditions: Homo sapiens, 100 ng/mL anti-lymphotoxin beta receptor antibody for 5 hours, read-out: p52 HeLa Transloc Assay (IC50)
Procedure: as §1

IC50 ([1]; HeLa) [nM]	SMILES	IC50 ([2]; HeLa, 5 h) [nM]	IC50 [1] [nM]	IC50 [2] [nM]
> 20000	CC(C)(O)Cn1cc(-c2c(C(N)=O)nc3n2C2CC(C2)c2ccc(C#CC4(O)CCCC4)cc2-3)cn1 [Example 289]	2700	–	–
> 20000	CN1CC[C@@](O)(C#Cc2cc3c(cc2F)C2CC(C2)n2cc(C(N)=O)nc2-3)C1=O [Example 300]	3000	–	–
> 20000	Cn1nccc1C(O)c1c(C(N)=O)nc2n1C1CC(C1)c1cc(F)c(C#CC3(O)CCCC3)cc1-2 (centres unmarked) [Example 304, 9-fluoro-10-[2-(1-hydroxycyclopen-tyl)ethynyl]-3-[hydroxy-(2-methylpyrazol-3-yl)methyl]-5,6,7,12-tetrahydro-5,7-meth-anobenzo[c]imidazo[1,2-a]azepine-2-car-boxamide]	1100	–	–
20000	CN1CC[C@@](O)(C#Cc2ccc3c(c2)-c2nc(C(N)=O)c(Cc4ccccc4Cl)n2C2CC3C2)C1=O [Example 308]	1500	–	–
> 20000	Cc1c(C(N)=O)nc2n1C1CC(C1)c1cc(F)c(C#C[C@]3(O)CCN(C)C3=O)cc1-2 [Example 331, 9-fluoro-10-[2-[(3R)-3-hydroxy-1-meth-yl-2-oxo-pyrrolidin-3-yl]ethynyl]-3-meth-yl-5,6,7,12-tetrahydro-5,7-methano-benzo[c]imidazo[1,2-a]azepine-2-carboxamide]	1000	–	–
> 20000	CN1CC[C@@](O)(C#Cc2cc3c(cc2F)C2CC(C2)n2c-3nc(C(N)=O)c2C2CC2)C1=O [Example 333, 3-cyclopropyl-9-fluoro-10-[2-[(3R)-3-hy-droxy-1-methyl-2-oxo-pyrrolidin-3-yl]ethynyl]-5,6,7,12-tetrahydro-5,7-meth-anobenzo[c]imidazo[1,2-a]azepine-2-carboxamide]	2200	–	–
> 20000	NC(=O)c1nc2n(c1C1CC1)C1CC(C1)c1cc(F)c(C#C[C@]3(O)CCNC3=O)cc1-2 [Example 338, 3-cyclopropyl-9-fluoro-10-[2-[(3R)-3-hy-droxy-2-oxo-pyrrolidin-3-yl]ethynyl]-5,6,7,12-tetrahydro-5,7-methano-benzo[c]imidazo[1,2-a]azepine-2-carboxamide]	3000	–	–
> 20000	CNC(=O)c1c(C(N)=O)nc2n1C1CC(C1)c1ccc(C#CC3(O)CCC3)cc1-2 [Example 361, 10-[2-(1-hydroxycyclobutyl)ethynyl]-N3-methyl-5,6,7,12-tetrahydro-5,7-meth-anobenzo[c]imidazo[1,2-a]azepine-2,3-dicarboxamide]	409	–	–
> 20000	CNC(=O)c1c(C(N)=O)nc2n1CCOc1cc(F)c(C#CC3(O)CCC3)cc1-2 [Example 362, 9-fluoro-10-[2-(1-hydroxycyclobutyl)ethy-nyl]-N3-methyl-5,6-dihydroimidazo[1,2-d][1,4]benzoxazepine-2,3-dicarbox-amide]	143	–	–
–	Cc1cc([C@](C)(O)C#Cc2cc3c(cc2F)C2CC(C2)n2c-3nc(C(N)=O)c2CNC(=O)C2CC2)no1 [Example 363]	–	> 20000	660
> 20000	NC(=O)c1cn2c(n1)-c1cc(C#CC3(O)CCC3)c(F)cc1C1CC2C1 [Example 364, 9-fluoro-10-[2-(1-hydroxycyclobutyl)ethy-nyl]-5,6,7,12-tetrahydro-5,7-methano-benzo[c]imidazo[1,2-a]azepine-2-carboxamide]	985	–	–
> 20000	CNC(=O)c1c(C(N)=O)nc2n1C1CC(C1)c1cc(F)c(C#CC3(O)CCC3)cc1-2 [Example 368, 9-fluoro-10-[2-(1-hydroxycyclobutyl)ethy-nyl]-N3-methyl-5,6,7,12-tetrahydro-5,7-methanobenzo[c]imidazo[1,2-a]azepine-2,3-dicarboxamide]	342	–	–
–	NC(=O)c1cn2c(n1)-c1cc(C#CC3(O)CCC3)ccc1C1CC2C1 [Example 369, 10-[2-(1-hydroxycyclobutyl)ethynyl]-5,6,7,12-tetrahydro-5,7-methanobenzo[c]imi-dazo[1,2-a]azepine-2-carboxamide]	–	> 20000	3700
